According to patent US8389523B2, “Substituted quinoxaline and an agrochemical composition thereof” (Kumiai Chemical Industry Co., Ltd., priority 2007, dated 2013):

Columns and labels:
Assay type in all cases: in vivo
Parameters in all cases: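 grade 0 to 5 of growth suppression where 5 is 90% or more and 0 below 10%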
[1] = test system: Abutilon theophrasti medicus; test: Herbicidal effects in upland field foliar treatment (Test Example 3); conditions: criteria of Table 138; for herbicidal effects on Abutilon theophrasti medicus: 1000 g of the active ingredient per hectare, 14th day after the treatment, wettable powder; for herbicidal effect (index) on Abutilon theophrasti medicus: 1000 g active ingredient per hectare, 14th day after treatment
Procedure, shortened: (§1)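 Herbicidal activity is rated visually on a fixed scale 14 days after foliar application. Plants raised from seed in upland field soil for two weeks under glass receive a water dilution of a wettable powder at 1000 g a.i. per hectare in 1000 L/ha.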

Amaranthus viridis L. [2] = test: as above; conditions: criteria of Table 138; for herbicidal effects on Amaranthus viridis L.: 1000 g of the active ingredient per hectare, 14th day after the treatment, wettable powder; for herbicidal effect (index) on Amaranthus viridis L.: 1000 g active ingredient per hectare, 14th day after treatment
Procedure, shortened: as §1

[3] = test system: Echinochloa crus-galli (L.) P. Beauv. var. crus-galli; test: as above; conditions: criteria of Table 138; for herbicidal effects on Echinochloa crus-galli (L.) P. Beauv. var. crus-galli: 1000 g of the active ingredient per hectare, 14th day after the treatment, wettable powder; for herbicidal effect (index) on Echinochloa crus-galli (L.) P. Beauv. var. crus-galli: 1000 g active ingredient per hectare, 14th day after treatment
Procedure, shortened: as §1

[4] = test system: Abutilon theophrasti medicus; test: Herbicidal effects in upland field soil treatment (Test Example 2); conditions: 1000 g active ingredient per hectare, 21st day after treatment, criteria of Table 138
Procedure, shortened: (§2)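 Herbicidal effect was rated visually against set criteria on the 21st day after a pre-emergence soil-surface spray of diluted wettable powder delivering 1000 g active ingredient per hectare (1000 L/ha). Seeds had been sown and covered in upland field soil; plants grew in a greenhouse.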

Amaranthus viridis L. [5] = test: as above; conditions: 1000 g active ingredient per hectare, 21st day after treatment, criteria of Table 138
Procedure, shortened: as §2

[6] = test system: Monochoria vaginalis (Burm. f.) Presl var. plantaginea (Roxb.) Solms-Laub.; test: Herbicidal effects in paddy field soil treatment (Test Example 1); conditions: paddy field soil treatment; 1000 g of the active ingredient per hectare; wettable powder added dropwise on water surface; 21st day after treatment
Procedure, shortened: (§3)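 Scoring of herbicidal effect took place 21 days after treatment, using a rating scale, on plants grown in a greenhouse. The test compound, formulated as a wettable powder and diluted with water, had been applied dropwise to the flood water at 1000 g active ingredient per hectare, one day after sowing into puddled paddy soil held under 3 cm of water.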

[7] = test system: Echinochloa oryzicola Vasing; test: as above; conditions: paddy field soil treatment; 1000 g of the active ingredient per hectare; wettable powder added dropwise on water surface; 21st day after treatment
Procedure, shortened: as §3

[8] = test system: Scirpus juncoides Roxb. var. ohwianus. T. Koyama; test: as above; conditions: paddy field soil treatment; 1000 g of the active ingredient per hectare; wettable powder added dropwise on water surface; 21st day after treatment
Procedure, shortened: as §3

Row | SMILES | herbicidal effects on Abutilon theophrasti medicus [1] | herbicidal effects on Amaranthus viridis L. (Amaranthus viridis L. [2]) | herbicidal effects on Echinochloa crus-galli (L.) P. Beauv. var. crus-galli [3] | herbicidal effect (index) on Abutilon theophrasti medicus [4] | herbicidal effect (index) on Amaranthus viridis L. (Amaranthus viridis L. [5]) | Herbicidal effects index, Monochoria vaginalis (Burm. f.) Presl var. plantaginea (Roxb.) Solms-Laub. [6] | Herbicidal effects index, Echinochloa oryzicola Vasing [7] | Herbicidal effects index, Scirpus juncoides Roxb. var. ohwianus. T. Koyama [8] | herbicidal effect (index) on Abutilon theophrasti medicus [1] | herbicidal effect (index) on Amaranthus viridis L. (Amaranthus viridis L. [2]) | herbicidal effect (index) on Echinochloa crus-galli (L.) P. Beauv. var. crus-galli [3]
1 | Cn1c(=O)c(C(=O)C2=C(O)C3CCC(C3)C2=O)nc2cccnc21 (stereo not drawn) [III-5] | 5 | 5 | 5 | 5 | 4 | 5 | 5 | 5 |  |  | 
2 | CC1(C)C(=O)C(C(=O)c2nc3ccccc3n(-c3ccc(Cl)cc3)c2=O)=C(O)C(C)(C)C1=O [II-15] | 5 | 5 | 5 | 5 | 5 | 5 | 5 | 5 |  |  | 
3 | CCS(=O)(=O)Cn1c(=O)c(C(=O)C2=C(O)CCCC2=O)nc2ccccc21 [Compound I-82] |  |  |  | 5 | 5 | 5 | 5 | 5 | 5 | 5 | 4
4 | O=C(C1=C(O)C2CCC(C2)C1=O)c1nc2ccccc2n(-c2ccc(Cl)cc2)c1=O (stereo not drawn) [II-14] | 4 | 5 | 5 | 5 | 5 | 5 | 5 | 5 |  |  | 
5 | CC1=NOC(Cn2c(=O)c(C(=O)C3=C(O)CCCC3=O)nc3ccccc32)C1 (stereo not drawn) [I-212] |  |  |  | 5 | 5 | 5 | 5 | 5 | 4 | 5 | 5
6 | O=C1CCCC(O)=C1C(=O)c1nc2ccccc2n(-c2ccccc2Cl)c1=O [II-9] |  |  |  | 5 | 4 | 5 | 5 | 5 | 5 | 5 | 5
7 | COCc1ccc(-n2c(=O)c(C(=O)C3=C(O)CCCC3=O)nc3ccccc32)cc1 [II-149] | 5 | 5 | 5 | 4 | 5 | 5 | 5 | 5 |  |  | 
8 | O=C1CCCC(O)=C1C(=O)c1nc2cccnc2n(-c2ccc(C(F)(F)F)cc2)c1=O [IV-44] | 5 | 5 | 5 | 5 | 5 | 5 | 5 | 5 |  |  | 
9 | O=C1CCCC(O)=C1C(=O)c1nc2ccccc2n(-c2ccc(OCC3CC3)cc2)c1=O [II-208] | 5 | 5 | 4 | 5 | 5 | 5 | 5 | 5 |  |  | 
10 | Cc1cc(-n2c(=O)c(C(=O)C3=C(O)CCCC3=O)nc3cc(F)ccc32)no1 [I-281] |  |  |  | 5 | 5 | 5 | 5 | 5 | 5 | 5 | 5
11 | O=C1CCCC(O)=C1C(=O)c1nc2c(F)cccc2n(-c2ccccc2)c1=O [II-233] | 5 | 5 | 5 | 5 | 5 | 5 | 5 | 5 |  |  | 
12 | O=C1CCCC(O)=C1C(=O)c1nc2ccccc2n(-c2cnccn2)c1=O [I-199] |  |  |  | 5 | 5 | 5 | 5 | 5 | 5 | 5 | 5
13 | Cn1nc(C(F)(F)F)cc1-n1c(=O)c(C(=O)C2=C(O)CCCC2=O)nc2ccccc21 [I-158] |  |  |  | 5 | 5 | 5 | 5 | 5 | 5 | 5 | 5
14 | CCOc1cccc(-n2c(=O)c(C(=O)C3=C(O)CCCC3=O)nc3ccccc32)c1 [II-68] | 5 | 5 | 5 | 5 | 5 | 5 | 5 | 5 |  |  | 
15 | CS(=O)(=O)c1ccc(-n2c(=O)c(C(=O)C3=C(O)CCCC3=O)nc3ccccc32)cc1 [II-125] | 5 | 5 | 5 | 5 | 5 | 5 | 5 | 5 |  |  | 
